Results as given in US8383637B2, “2-amino-quinazoline derivatives useful as inhibitors of β-secretase (BACE)” (Jansssen Pharmaceutica N.V., priority 2004, dated 2013).
Like-named read-outs stand apart in the source and are kept apart here.

Legend:
β-secretase(BACE) [1] = target: T1, β-secretase(BACE) (Homo sapiens, UniProt P56817); experiment: BACE Assay-2 (FS1 substrate, IC50 and Ki); type: biochemical; details: procedure of Example 159, FS1 substrate; read-out: Ki μM (159)
T1 construct: purchased Panvera
T1 sequence (P56817 46-501): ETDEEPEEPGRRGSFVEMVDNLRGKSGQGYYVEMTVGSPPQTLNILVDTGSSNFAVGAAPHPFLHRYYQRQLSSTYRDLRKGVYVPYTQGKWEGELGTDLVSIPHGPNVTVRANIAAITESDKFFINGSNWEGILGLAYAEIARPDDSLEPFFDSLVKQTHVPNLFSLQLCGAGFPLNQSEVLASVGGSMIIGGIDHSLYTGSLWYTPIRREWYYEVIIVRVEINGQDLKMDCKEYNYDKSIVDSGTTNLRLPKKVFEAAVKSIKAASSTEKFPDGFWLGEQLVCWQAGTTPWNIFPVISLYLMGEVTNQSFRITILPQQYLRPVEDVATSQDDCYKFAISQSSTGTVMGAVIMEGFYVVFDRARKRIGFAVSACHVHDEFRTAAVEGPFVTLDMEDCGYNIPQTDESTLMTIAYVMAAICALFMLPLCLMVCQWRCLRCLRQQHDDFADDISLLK
Method: The FS1-substrate stock solution was prepared in DMSO as a 10 mg/mL solution. The FS1-substrate working solution was prepared by diluting the 10 mg/mL stock solution with substrate assay buffer to a final concentration of 300 μg/mL. The β-secretase (BACE) working solution was prepared by diluting a 0.83 mg/mL BACE stock solution with enzyme assay buffer to a final concentration of 4 μg/mL.
Test compounds were dissolved in DMSO at 10 mM.
The procedure for this assay was as follows: 15 μL of BACE working solution was pipetted into each well of a 96-well plate. To each well was then pipetted 2 μL of test compound at the selected concentration. Test compound and BACE were then mixed with a pipettor and incubated for 20 min at room temperature. To each well was then added 10 μL of the FS1 substrate working solution.
The procedure for the positive control was as follows: 15 μL of BACE working solution was pipetted into each well to be used as a positive control. To each well was then pipetted 2 μL of vehicle. Vehicle and BACE were then mixed with a pipettor and incubated for 20 min at room temperature. To each well was then added 10 μL of the FS1 substrate working solution.
For test compounds, measured at multiple concentrations, the measured T0 and T60 values were used to calculate an IC50 value using Graphpad Software (or PIR). For test compounds, Ki inhibition was determined as follows: For each compound concentration and positive control, rate of cleavage of substrate (Vi, where i=compound concentration in μM) was determined as Δ Fluorescence/Δ time (min). Cleavage rates (Vi) were plotted as a function of inhibitor concentration in μM [I]. The Ki was then determined by fitting the following equation to the graph of [I] vs Vi Y=aVmax/(50+24*(1+X/Ki)),

β-secretase(BACE) [2] = target: T1, β-secretase(BACE); experiment: BACE FS1% Inhibition Assay; type: biochemical; details: FS1 substrate; for inhibition at 10 µM: 10 μM test compound, read-out: % Inhibition (FS) 10 μM
How it was run: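 Human BACE (4 μg/mL working solution) preincubated 20 min at room temperature with compound, then FS1 substrate (300 μg/mL working solution) added and incubated 1 h at room temperature. Percent inhibition calculated at each compound concentration against blank and vehicle controls.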

[3] = 0.3 μM test compound, read-out: % Inhibition (FS) 0.3 μM
[4] = 1 μM test compound, read-out: % Inhibition (FS) 1 μM
[5] = 3 μM test compound, read-out: % Inhibition (FS) 3 μM
[6] = 0.3 μM test compound, read-out: % Inhibition (FS)
[7] = 1 μM test compound, read-out: % Inhibition (FS)
[8] = 3 μM test compound, read-out: % Inhibition (FS)

SMILES | Ki (β-secretase(BACE) [1]) [µM] | inhibition at 0.3 µM (β-secretase(BACE) [2]; [3]) [%] | inhibition at 1 µM (β-secretase(BACE) [2]; [4]) [%] | inhibition at 3 µM (β-secretase(BACE) [2]; [5]) [%] | inhibition at 0.3 µM (β-secretase(BACE) [2]; [6]) [%] | inhibition at 1 µM (β-secretase(BACE) [2]; [7]) [%] | inhibition at 3 µM (β-secretase(BACE) [2]; [8]) [%] | % Inhibition (FS) 0.3 μM (β-secretase(BACE) [2]; 0.3 μM test compound, 0.3 µM) [%] | % Inhibition (FS) 1 μM (β-secretase(BACE) [2]; 1 μM test compound, 1 µM) [%] | % Inhibition (FS) 3 μM (β-secretase(BACE) [2]; 3 μM test compound, 3 µM) [%] | inhibition at 10 µM (β-secretase(BACE) [2]) [%]
CN(C(=O)c1cccc(CN2Cc3cc(-c4ccccc4C(N)=O)ccc3N=C2N)c1)C1CCCCC1 [Compound 173] | 0.47 | < 30 | 53 | 76 |  |  |  |  |  |  | 
CN(C(=O)CC[C@@H](CO)N1Cc2cc(Oc3ccccc3)ccc2N=C1N)C1CCCCC1 [Compound 558, (S)-enantiomer of 4-(2-Amino-6-phenoxy-4H-quinazolin-3-yl)-5-hydroxy-pentanoic acid cyclohexyl-methyl-amide] | 0.16 | 42 | 92 | 115 |  |  |  |  |  |  | 
COC(=O)[C@@H](COCc1ccccc1)N(C)C(=O)CC[C@@H](C1CCOCC1)N1Cc2cc(Oc3ccccc3)ccc2N=C1N [Compound 783] | 0.301 |  |  |  | 109 | 110 | 121 |  |  |  | 
CN(C(=O)CC[C@@H](C1CCCCC1)N1Cc2cc(Oc3ccccc3)ccc2N=C1N)[C@H]1CC[C@@H](C(=O)O)CC1 [Compound 739, (S)-enantiomer of 4-cis-{[4-(2-Amino-6-phenoxy-4H-quinazolin-3-yl)-4-cyclohexyl-butyryl]-methyl-amino}-cyclohexanecarboxylic acid] | 0.005 |  |  |  | 99 | 104 | 105 |  |  |  | 
CN(C(=O)c1cccc(CN2Cc3cc(Oc4cccc(-c5ccccc5)c4)ccc3N=C2N)c1)C1CCCCC1 [Compound 231] | 3.8 | < 30 | 71 | 75 |  |  |  |  |  |  | 
NC1=Nc2ccc(-c3ccccc3O)cc2CN1CCNC(=O)C1CCCCC1 [Compound 538] | 0.44 | < 30 | 53 | 100 |  |  |  |  |  |  | 
CCCC(CNC(=O)C1CCCCC1)N1Cc2cc(Oc3ccccc3)ccc2N=C1N (stereo not shown) [Compound 601] | 0.027 |  |  |  |  |  |  | 105 | 115 | 121 | 
CC(=O)Nc1ccccc1-c1ccc2c(c1)CN(Cc1cccc(C(=O)N(C)C3CCCCC3)c1)C(N)=N2 [Compound 328] | 0.33 | < 30 | 61 | 92 |  |  |  |  |  |  | 
CN(C(=O)c1cccc(CN2Cc3cc(-c4ccccc4OC(F)(F)F)ccc3N=C2N)c1)C1CCCCC1 [Compound 324] | 0.52 | < 30 | 55 | 87 |  |  |  |  |  |  | 
NC1=Nc2ccc(-c3c(F)cccc3F)cc2CN1CCNC(=O)C1CCCCC1 [Compound 629] | 0.13 | < 30 | 72 | 102 |  |  |  |  |  |  | 
NC1=Nc2ccc(Oc3ccccc3)cc2CN1CCNC(=O)CCC1CCCC1 [Compound 140] | 0.32 |  |  | 79 |  |  |  |  |  |  | 101
CN(C(=O)CC[C@@H]([C@H]1CC[C@@H](O)CC1)N1Cc2cc(Oc3ccccc3)ccc2N=C1N)C1CCCCC1 [Compound 731, 4-(2-Amino-6-phenoxy-4H-quinazolin-3-yl)-N-cyclohexyl-4-(cis-4-hydroxy-cyclohexyl)-N-methyl-butyramide] | 0.087 |  |  |  | 56 | 114 | 132 |  |  |  | 
COC(=O)[C@@H](COCc1ccccc1)N(C)C(=O)CC[C@@H](C1CCCCC1)N1Cc2cc(Oc3ccccc3)ccc2N=C1N [Compound 779] | 0.045 |  |  |  | 102 | 107 | 120 |  |  |  | 
CCCC(CCCC(=O)NC1CCCCCC1)N1Cc2cc(Oc3ccccc3)ccc2N=C1N (stereo not shown) [Compound 137] | 0.73 |  |  | 82 |  |  |  |  |  |  | 107
Cc1ccccc1-c1ccc2c(c1)CN(CCNC(=O)C1CCCC1)C(N)=N2 [Compound 657, Cyclopentanecarboxylic acid [2-(2-amino-6-o-tolyl-4H-quinazolin-3-yl)-ethyl]-amide] | 0.032 | 88 | 103 | 111 |  |  |  |  |  |  | 
